Experimental data from patent US20200246298A1, “Composition for Preventing or Treating Asthma Comprising Fatty Acid as Active Ingredient” (Dongshin University Industry-Academy Cooperation, priority 2019, published 2020).

Tests used:
[1] = tested on: WBC cells, eosinophils, neutrophils, lymphocytes and monocytes in BALF; assay: Blood cell analysis in BALF of mice with OVA-induced asthma; assay type: in vivo, BALB/c mice; conditions: for proliferation of leukocytes, neutrophils, lymphocytes and monocytes in BALF and serum: summary statement, ovalbumin-induced asthma
Experimental: This experiment was performed in order to examine the anti-asthmatic effects of fatty acids after inducing asthma in experimental animals by ovalbumin (OVA). Experimental animals used in the experiment were chosen because of the accumulated abundant test data and their ease of analysis and evaluation of experimental results. BALB/c mice, which are specific pathogen […] (SPF) mice, were chosen based on the related literature. Experimental animals were provided in the minimum number so as to be able to analyze experimental results and were divided into a total of 9 groups according to the substance to be administered, and each group consisted of 8 animals. […] In test groups, the animals determined to be healthy during the acclimation period were ranked by measuring the weight, and were randomly grouped so that the average weight of each group was uniform. The animals were divided into a total of 9 groups: a control group; a control group with OVA-induced asthma; a positive control group; groups administered with each of 50 mg/kg, 125 mg/kg and 250 mg/kg of oleic acid; and groups administered with each of 5 mg/kg, 25 mg/kg and 50 mg/kg of palmitic acid. The animals were sensitized via intraperitoneal injection of OVA once a week for 2 weeks after the acclimation period. During 5 days of week 3, dexamethasone (DEX) and the test substances oleic acid and palmitic acid were orally administered in the morning and 5% OVA solution was inhaled in the afternoon. The test substance was orally administered in an amount of 28 μL per weight (g) of the experimental animal, and OVA for sensitization was administered in a constant amount regardless of the weight. After 5 days of administration, autopsy was performed the next day. Intraperitoneal administration: based on the related literature, 20 μg OVA+1 mg aluminum hydroxide+500 μL/head of normal saline were administered. For a total of 50 animals to be administered, 1000 μg OVA+50 mg aluminum hydroxide+25 mL of normal saline were prepared. The animals were sensitized by intraperitoneal injection once a week for 2 weeks, and injected with the test substance by a 1 mL syringe. Oral administration: the control group and the asthma-induced control group were administered with saline, and oleic acid and palmitic acid were used in dissolved in saline at various concentrations. Dexamethasone was dissolved in saline by stirring and prepared according to a final dose. All preparations were prepared on the day of administration. Inhalation: a solution containing 1 g OVA+20 mL normal saline (5% OVA solution) was prepared, stirred and administered. A forced inhalation was performed using a nebulizer (OMRON, NE-U17) for 5 days, and systemic exposure was performed using an inhalation exposure chamber. Collection of bronchoalveolar lavage fluid (BALF): the anesthetized animal tissue was opened with tweezers to secure the trachea, and then a surgical thread was placed underneath and loosely tied, and the trachea was slightly cut with scissors. Then, 0.2 mL of PBS was placed into a syringe with the needle removed, and the syringe was inserted into a sonde and then injected into the trachea. After injection, BALF was collected by injecting PBS again. 0.2 mL of BALF was collected three times in the same manner. The first BALF was placed in tube No. 1, the second and third BALFs were placed in tube No. 2. The blood cell analysis in BALF were performed (Lee et al., 2017; Bang et al., 2015). One day after the final treatment, the mice were anesthetized with intraperitoneal injections of 50 mg/kg Zoletin (Virbac, Fort Worth, Tex., USA), and their tracheas were cannulated with disposable animal feeding needles. Lavages were performed with three 0.4 ml aliquots of cold phosphate-buffered saline (PBS). The BALF samples were collected and immediately centrifuged at 3000 rpm for 5 minutes at 4° C. (Sorvall Legend Micro 17R, Thermo Fisher Scientific, Inc. Marietta, Ohio, USA). […]

[2] = tested on: IgE; assay: Analysis of IgE in BALF (Mouse IgE ELISA), OVA-induced asthma; assay type: in vivo, BALB/c mice; conditions: 5 days, vs OVA-sensitized group
Experimental: In test groups, the animals determined to be healthy during the acclimation period were ranked by measuring the weight, and were randomly grouped so that the average weight of each group was uniform. The animals were divided into a total of 9 groups: a control group; a control group with OVA-induced asthma; a positive control group; groups administered with each of 50 mg/kg, 125 mg/kg and 250 mg/kg of oleic acid; and groups administered with each of 5 mg/kg, 25 mg/kg and 50 mg/kg of palmitic acid. The animals were sensitized via intraperitoneal injection of OVA once a week for 2 weeks after the acclimation period. During 5 days of week 3, dexamethasone (DEX) and the test substances oleic acid and palmitic acid were orally administered in the morning and 5% OVA solution was inhaled in the afternoon. The test substance was orally administered in an amount of 28 μL per weight (g) of the experimental animal, and OVA for sensitization was administered in a constant amount regardless of the weight. After 5 days of administration, autopsy was performed the next day. Immunoglobulin E (IgE) is a type of protein called antibody that plays an important role in allergic reactions. When IgE is exposed to a certain substance, the immune system begins to produce IgE in order to protect the body. […] 50 μL of a stop solution was added to each well, and the absorbance at 450 nm was measured.

Structure (SMILES)	number of differential cells in BALF ([1]; oleic acid 50, 125, 250 mg/kg oral, 5 days, FIG. 1)	number of WBC cells ([1]; oleic acid 50, 125, 250 mg/kg oral, 5 days, vs OVA-sensitized group, FIG. 2)	number of eosinophils (EOs) ([1]; oleic acid 50, 125, 250 mg/kg oral, 5 days, vs OVA-sensitized group, FIG. 3)	number of neutrophils (NEs) ([1]; oleic acid 50, 125, 250 mg/kg oral, 5 days, vs OVA-sensitized group, FIG. 4)	number of lymphocytes (LYs) ([1]; oleic acid 50, 125, 250 mg/kg oral, 5 days, vs OVA-sensitized group, FIG. 5)	number of monocytes (MOs) ([1]; oleic acid 50, 125, 250 mg/kg oral, 5 days, vs OVA-sensitized group, FIG. 6)	proliferation of leukocytes, neutrophils, lymphocytes and monocytes in BALF and serum [1]	quantity of IgE ([2]; oleic acid 50, 125, 250 mg/kg oral, FIG. 13)	number of differential cells in BALF ([1]; palmitic acid 5, 25, 50 mg/kg oral, 5 days, FIG. 7)	number of WBC cells ([1]; palmitic acid 5, 25, 50 mg/kg oral, 5 days, vs OVA-sensitized group, FIG. 8)	number of neutrophils (NEs) ([1]; palmitic acid 5, 25, 50 mg/kg oral, 5 days, vs OVA-sensitized group, FIG. 10)	number of monocytes (MOs) ([1]; palmitic acid 5, 25, 50 mg/kg oral, 5 days, vs OVA-sensitized group, FIG. 12)	quantity of IgE ([2]; palmitic acid 5, 25, 50 mg/kg oral, FIG. 14)
CCCCCCCC/C=C\CCCCCCCC(=O)O [oleic acid]	dose-dependently decreased	dose-dependently decreased	dose-dependently decreased	dose-dependently decreased	dose-dependently decreased	dose-dependently decreased	inhibit	dose-dependently decreased	–	–	–	–	–
CCCCCCCCCCCCCCCC(=O)O [palmitic acid]	–	–	–	–	–	–	inhibit	–	dose-dependently decreased	dose-dependently decreased	dose-dependently decreased	dose-dependently decreased	dose-dependently decreased
